Measured values from ChEMBL document CHEMBL4831492, “Design and synthesis of 2-(2-isonicotinoylhydrazineylidene)propanamides as InhA inhibitors with high antitubercular activity” (Eur J Med Chem, 2021).
Converted amounts (≈) assume the structure as drawn.

How the values were obtained:
Assay type in all cases: functional
[1] = test system: Mycobacterium tuberculosis; test: Antimycobacterial activity against multi drug-resistant Mycobacterium tuberculosis 234/2005 assessed as minimal inhibitory concentration required for complete inhibition of mycobacterial growth incubated for 21 days; conditions: 234/2005, 504 h, time 21 day
[2] = test system: Mycobacterium tuberculosis; test: Antimycobacterial activity against Mycobacterium tuberculosis H37Ra overexpressing InhA assessed as bacterial growth inhibition incubated for 28 days by drop dilution method; conditions: 672 h, time 28 day
[3] = test system: Mycobacterium tuberculosis; test: Antimycobacterial activity against multi drug-resistant Mycobacterium tuberculosis praha 4 assessed as minimal inhibitory concentration required for complete inhibition of mycobacterial growth incubated for 21 days; conditions: praha 4, 504 h, time 21 day
[4] = test system: Mycobacterium tuberculosis; test: Antimycobacterial activity against multi drug-resistant Mycobacterium tuberculosis praha 1 assessed as minimal inhibitory concentration required for complete inhibition of mycobacterial growth incubated for 14 days; conditions: praha 1, 336 h, time 14 day
[5] = test system: Mycobacterium tuberculosis; test: Antimycobacterial activity against multi drug-resistant Mycobacterium tuberculosis 9449/2007 assessed as minimal inhibitory concentration required for complete inhibition of mycobacterial growth incubated for 21 days; conditions: 9449/2007, 504 h, time 21 day
[6] = test system: Mycobacterium tuberculosis; test: Antimycobacterial activity against multi drug-resistant Mycobacterium tuberculosis 8666/2010 assessed as minimal inhibitory concentration required for complete inhibition of mycobacterial growth incubated for 14 days; conditions: 8666/2010, 336 h, time 14 day
[7] = test system: Mycobacterium tuberculosis; test: Antimycobacterial activity against multi drug-resistant Mycobacterium tuberculosis 9449/2007 assessed as minimal inhibitory concentration required for complete inhibition of mycobacterial growth incubated for 14 days; conditions: 9449/2007, 336 h, time 14 day
[8] = test system: Mycobacterium tuberculosis; test: Antimycobacterial activity against multi drug-resistant Mycobacterium tuberculosis 234/2005 assessed as minimal inhibitory concentration required for complete inhibition of mycobacterial growth incubated for 14 days; conditions: 234/2005, 336 h, time 14 day
[9] = test system: Mycobacterium tuberculosis; test: Antimycobacterial activity against multi drug-resistant Mycobacterium tuberculosis 7357/1998 assessed as minimal inhibitory concentration required for complete inhibition of mycobacterial growth incubated for 21 days; conditions: 7357/1998, 504 h, time 21 day
[10] = test system: Mycobacterium tuberculosis; test: Antimycobacterial activity against multi drug-resistant Mycobacterium tuberculosis praha 4 assessed as minimal inhibitory concentration required for complete inhibition of mycobacterial growth incubated for 14 days; conditions: praha 4, 336 h, time 14 day
[11] = test system: Mycobacterium tuberculosis; test: Antimycobacterial activity against multi drug-resistant Mycobacterium tuberculosis praha 131 assessed as minimal inhibitory concentration required for complete inhibition of mycobacterial growth incubated for 14 days; conditions: praha 131, 336 h, time 14 day
[12] = test system: Mycobacterium tuberculosis; test: Antimycobacterial activity against multi drug-resistant Mycobacterium tuberculosis 8666/2010 assessed as minimal inhibitory concentration required for complete inhibition of mycobacterial growth incubated for 21 days; conditions: 8666/2010, 504 h, time 21 day
[13] = test system: Mycobacterium tuberculosis; test: Antimycobacterial activity against multi drug-resistant Mycobacterium tuberculosis praha 1 assessed as minimal inhibitory concentration required for complete inhibition of mycobacterial growth incubated for 21 days; conditions: praha 1, 504 h, time 21 day
[14] = test system: Mycobacterium tuberculosis; test: Antimycobacterial activity against multi drug-resistant Mycobacterium tuberculosis praha 131 assessed as minimal inhibitory concentration required for complete inhibition of mycobacterial growth incubated for 21 days; conditions: praha 131, 504 h, time 21 day
[15] = test system: Mycobacterium tuberculosis; test: Antimycobacterial activity against multi drug-resistant Mycobacterium tuberculosis 7357/1998 assessed as minimal inhibitory concentration required for complete inhibition of mycobacterial growth incubated for 14 days; conditions: 7357/1998, 336 h, time 14 day
[16] = test system: Mycobacterium tuberculosis; test: Antimycobacterial activity against Mycobacterium tuberculosis H37Ra overexpressing KatGs-meg assessed as bacterial growth inhibition incubated for 28 days by drop dilution method; conditions: 672 h, time 28 day

| SMILES | MIC [1] [µM] | MIC [2] [µM] | MIC [3] [µM] | MIC [4] [µM] | MIC [5] [µM] | MIC [6] [µM] | MIC [7] [µM] | MIC [8] [µM] | MIC [9] [µM] | MIC [10] [µM] | MIC [11] [µM] | MIC [12] [µM] | MIC [13] [µM] | MIC [14] [µM] | MIC [15] [µM] | MIC [16] [µM] |
| --- | --- | --- | --- | --- | --- | --- | --- | --- | --- | --- | --- | --- | --- | --- | --- | --- |
| C/C(=N\NC(=O)c1ccncc1)C(=O)Nc1ccc(I)cc1 | 16 (≈ 6.53 µg/mL) | 12.5 (≈ 5.1 µg/mL) | 32 (≈ 13.1 µg/mL) | 16 (≈ 6.53 µg/mL) | 16 (≈ 6.53 µg/mL) | 8 (≈ 3.27 µg/mL) | 8 (≈ 3.27 µg/mL) | 16 (≈ 6.53 µg/mL) | 32 (≈ 13.1 µg/mL) | 16 (≈ 6.53 µg/mL) | 8 (≈ 3.27 µg/mL) | 16 (≈ 6.53 µg/mL) | 32 (≈ 13.1 µg/mL) | 16 (≈ 6.53 µg/mL) | 16 (≈ 6.53 µg/mL) | 0.25 (≈ 0.102 µg/mL) |
| C/C(=N\NC(=O)c1ccncc1)C(=O)Nc1cccc(Cl)c1 | 64 (≈ 20.3 µg/mL) |  | 32 (≈ 10.1 µg/mL) | 32 (≈ 10.1 µg/mL) | 64 (≈ 20.3 µg/mL) | 16 (≈ 5.07 µg/mL) | 32 (≈ 10.1 µg/mL) | 64 (≈ 20.3 µg/mL) | 32 (≈ 10.1 µg/mL) | 32 (≈ 10.1 µg/mL) | 32 (≈ 10.1 µg/mL) | 32 (≈ 10.1 µg/mL) | 32 (≈ 10.1 µg/mL) | 64 (≈ 20.3 µg/mL) | 32 (≈ 10.1 µg/mL) |  |
| C/C(=N\NC(=O)c1ccncc1)C(=O)Nc1ccc(F)cc1 | 125 (≈ 37.5 µg/mL) |  | 64 (≈ 19.2 µg/mL) | 64 (≈ 19.2 µg/mL) | 32 (≈ 9.61 µg/mL) | 32 (≈ 9.61 µg/mL) | 32 (≈ 9.61 µg/mL) | 64 (≈ 19.2 µg/mL) | 64 (≈ 19.2 µg/mL) | 32 (≈ 9.61 µg/mL) | 64 (≈ 19.2 µg/mL) | 32 (≈ 9.61 µg/mL) | 64 (≈ 19.2 µg/mL) | 64 (≈ 19.2 µg/mL) | 64 (≈ 19.2 µg/mL) |  |
| C/C(=N\NC(=O)c1ccncc1)C(=O)Nc1ccc(Cl)c(Cl)c1 | 125 (≈ 43.9 µg/mL) |  | 125 (≈ 43.9 µg/mL) | 64 (≈ 22.5 µg/mL) | 32 (≈ 11.2 µg/mL) | 32 (≈ 11.2 µg/mL) | 32 (≈ 11.2 µg/mL) | 64 (≈ 22.5 µg/mL) | 125 (≈ 43.9 µg/mL) | 64 (≈ 22.5 µg/mL) | 32 (≈ 11.2 µg/mL) | 32 (≈ 11.2 µg/mL) | 125 (≈ 43.9 µg/mL) | 64 (≈ 22.5 µg/mL) | 64 (≈ 22.5 µg/mL) |  |
| C/C(=N\NC(=O)c1ccncc1)C(=O)Nc1ccc(C(F)(F)F)cc1 | 64 (≈ 22.4 µg/mL) |  | 64 (≈ 22.4 µg/mL) | 32 (≈ 11.2 µg/mL) | 32 (≈ 11.2 µg/mL) | 32 (≈ 11.2 µg/mL) | 32 (≈ 11.2 µg/mL) | 32 (≈ 11.2 µg/mL) | 64 (≈ 22.4 µg/mL) | 32 (≈ 11.2 µg/mL) | 64 (≈ 22.4 µg/mL) | 32 (≈ 11.2 µg/mL) | 64 (≈ 22.4 µg/mL) | 64 (≈ 22.4 µg/mL) | 32 (≈ 11.2 µg/mL) |  |
| C/C(=N\NC(=O)c1ccncc1)C(=O)Nc1ccc(Cl)cc1 | 64 (≈ 20.3 µg/mL) |  | 32 (≈ 10.1 µg/mL) | 32 (≈ 10.1 µg/mL) | 64 (≈ 20.3 µg/mL) | 8 (≈ 2.53 µg/mL) | 32 (≈ 10.1 µg/mL) | 32 (≈ 10.1 µg/mL) | 32 (≈ 10.1 µg/mL) | 32 (≈ 10.1 µg/mL) | 32 (≈ 10.1 µg/mL) | 16 (≈ 5.07 µg/mL) | 32 (≈ 10.1 µg/mL) | 64 (≈ 20.3 µg/mL) | 32 (≈ 10.1 µg/mL) |  |
| C/C(=N\NC(=O)c1ccncc1)C(=O)Nc1ccc(Br)cc1 | 64 (≈ 23.1 µg/mL) |  | 32 (≈ 11.6 µg/mL) | 32 (≈ 11.6 µg/mL) | 64 (≈ 23.1 µg/mL) | 32 (≈ 11.6 µg/mL) | 32 (≈ 11.6 µg/mL) | 32 (≈ 11.6 µg/mL) | 32 (≈ 11.6 µg/mL) | 32 (≈ 11.6 µg/mL) | 32 (≈ 11.6 µg/mL) | 32 (≈ 11.6 µg/mL) | 32 (≈ 11.6 µg/mL) | 64 (≈ 23.1 µg/mL) | 32 (≈ 11.6 µg/mL) |  |
| C/C(=N\NC(=O)c1ccncc1)C(=O)Nc1ccc(OC(F)(F)F)cc1 | 32 (≈ 11.7 µg/mL) | 6 (≈ 2.2 µg/mL) | 64 (≈ 23.4 µg/mL) | 64 (≈ 23.4 µg/mL) | 64 (≈ 23.4 µg/mL) | 32 (≈ 11.7 µg/mL) | 32 (≈ 11.7 µg/mL) | 32 (≈ 11.7 µg/mL) | 64 (≈ 23.4 µg/mL) | 32 (≈ 11.7 µg/mL) | 64 (≈ 23.4 µg/mL) | 64 (≈ 23.4 µg/mL) | 64 (≈ 23.4 µg/mL) | 64 (≈ 23.4 µg/mL) | 32 (≈ 11.7 µg/mL) | 0.15 (≈ 0.0549 µg/mL) |
